The values that follow come from paper PMC8157578 (Antioxidants, 2021).

Data set [1] is described as follows: 1-octanol/phosphate buffer partitioning, shake-flask method. The class given is physicochemical. The conditions noted are these: 1-octanol / 100 mM phosphate buffer pH 7.4, shake-flask.
The test system of data set [2] is HeLa cells. The data set is described as follows: Auto-fluorescence of HeLa cells after incubation with compound (cell uptake). The class given is cell-based, human. The conditions noted are these: HeLa cells incubated two hours, auto-fluorescence Ex ~330 nm, Em ~450 nm.
Source text: Subsequently, cells were washed and collected by centrifugation, the fluorescence of cells (105) was monitored by Thermo Scientific Varioskan Flash (Thermo Fisher scientific, USA) ***Significant difference from iron-overloaded group, p < 0.001.
Data set [3] concerns plasmid pBR322 DNA. The data set is described as follows: Plasmid DNA strand breakage induced by Fe(III)–citrate/ascorbate/H2O2, agarose gel electrophoresis. The class given is biochemical. The conditions noted are these: 20 μM Fe(III)–citrate, 10 μM ascorbate, 200 μM H2O2. As for the experimental part:
(§1) Plasmid DNA agarose gel electrophoresis was employed to investigate protective effect of CAPE and its analogues against DNA strand breakage induced by an iron-mediated system. For experimental procedure details, please refer to the Supplementary Materials.
Figure 4 Protective effect of CAPE and its analogues against Fe(III)–citrate–ascorbate–H2O2-induced DNA damage. […] The reaction mixture contained 20 μM Fe(III)–citrate, 10 μM ascorbate, and 200 μM H2O2, as well as the indicated concentrations of CAPE and its analogues. The experiments were repeated three times, and only typical images are presented. […]
The experiments were conducted via incubation of plasmid pBR322 DNA (5 μg/mL) at 37 °C for
30 min in Chelex-treated HEPES buffer (100 mM, pH 7.4) with the iron-containing systems, in the
absence or presence of the indicated concentrations of CAPE and its analogues. […]

The subject of data set [4] is HeLa cells. The data set is described as follows: Immunofluorescence analysis of intracellular γ-H2AX generation in iron-overloaded HeLa cells (with H2O2). The class given is cell-based, human. The conditions noted are these: Fe(II)-H2O2 alone 2.86±0.64. On the procedure:
The immortalized human cervical carcinoma HeLa cell line used in this study was obtained from the Cell Resource Center, Peking Union Medical College. The cell line was checked to be free of mycoplasma contamination by PCR and culture. Its species origin was confirmed with PCR. The identity of the cell line was authenticated with STR profiling (FBI, CODIS). HeLa cells were cultured in a DMEM medium (4 mM L-glutamine, 4500 mg/L glucose, and no sodium pyruvate) with 10% fetal bovine serum (FBS) and 1% penicillin–streptomycin at 37 °C under a 5% CO2 atmosphere.
HeLa cells (10^4/well) were loaded by incubation with 20 μM Fe(II) for 2 h at 37 °C. […] For a detailed experimental procedure, please refer to the Supplementary Materials and our previous report. The experiment was repeated three times. The observation of the fluorescence of γ-H2AX in HeLa cells was conducted with a confocal laser scanning microscope (CLSM) (Leica TCS SP). Thirty cells in each group were randomly selected in different microscopic fields for quantitative detection. In detail, each well was equally divided into nine fields and numbered sequentially from the top right corner. Four fields were randomly selected according to a random number table. Thirty cells were then randomly selected from these four fields. All images were analyzed blind regarding exposure parameters, which were coded by one person and read by another who was blinded to the code. The fluorescence intensity of the γ-H2AX signal on selected images was automatically analyzed using the Image-J software. The Statistical Product and Service Solutions (SPSS 21) program was employed to analyze the data through ANOVA. Significant difference from iron-overloaded group are marked with * p < 0.05, ** p < 0.01, and *** p < 0.001.
(§2) 2.1 Immunofluorescence analysis of intracellular γ-H2AX generation in Hela cells
(§3) Fixed cells were permeabilized with 0.25% Triton-X100 in PBS for 10 min and blocked in 10%
(§4) normal goat serum, 0.1% tween 20 in PBS for 1 hour. The cells were incubated with primary
(§5) monoclonal antibody, γ-H2AX (Ser139, 20E3, Rabbit, mAb #9718) (1:600) overnight at 4°C, and then
(§6) stained secondary antibodies, anti-rabbit Alexa-488 and anti-mouse (Cell Signaling Technology) for
(§7) 1 hour. After Hoechst 33342 (10 μg/mL) staining for 2 min, dishes were mounted in ProLong™ Gold
(§8) Antifade Mountant (Invitrogen™) and stored at 4°C in the dark before confocal laser-scanning by
(§9) Broadband Confocal Leica TCS SP5. The CLSM images were obtained with the following excitation
(§10) respectively. Cells were washed 3 times with PBS (200 μL/well) at intervals. […]

Data set [5] relates to plasmid pBR322 DNA. The data set is described as follows: Plasmid DNA strand breakage induced by Fe(II)–H2O2, agarose gel electrophoresis. The conditions noted are these: ratio-dependent. The class given is biochemical. As for the experimental part: as §1, §2, §3, §4, §5, §6, §7, §8, §9, §10
ESR spectra were recorded at room temperature in a Bruker ESR 300 spectrometer. […]
The consumption of O2 was measured by Orion 3 dissolved oxygen meter (Thermo Scientific, […]
Corona Needle current was 3000 nA. The size of data points was recorded in 4 M format. […]

In data set [6] the test system is HeLa cells. The data set is described as follows: Labile iron pool (LIP) determination with calcein-AM in iron-overloaded HeLa cells, flow cytometry. The conditions noted are these: 50 μM compound alone, no iron. The class given is cell-based, human.
The nature of data set [7]: ESR spin-trapping (DMPO) of •OH generated by Fe(III)–citrate–ascorbate–H2O2. Type of data set: biochemical. The conditions noted are these: 100 μM Fe(III)–citrate, 100 μM ascorbate, 1 mM H2O2.
Procedure: The basic system used in this study consisted of Fe(III)/Fe(II), ascorbate, H2O2, and the spin trapping agent DMPO (100 mM) in 20 mM HEPES (pH 7.4) with or without CAPE and its analogues.
The reaction mixture contained 100 μM Fe(III)–citrate, 100 μM ascorbate, and 1 mM H2O2, as well as the indicated concentrations of CAPE and its analogues. The experiments were repeated three times, and only typical spectra are presented.
2.3 Electron spin resonance (ESR) spin-trapping studies
spectrometer parameters were as follows: scan range, 100 G; field set, 3470 G; time constant, 200 ms;
scan time, 100 s; modulation amplitude, 1.0 G; modulation frequency, 100 kHz; receiver gain,
The nature of data set [8]: Cyclic voltammetry of Fe(III) chelated by ligand. Type of data set: physicochemical. The conditions noted are these: 100 mM PB pH 7.4, SCE reference, 2 mV/s; Fe(III) alone approximately −0.65 V. On the procedure:
CV was performed in 100 mM PB (pH 7.4) on a Princeton Applied Research (VersaSTAT3) potentiostat with a Pt wire as the counter electrode, a saturated calomel electrode (SCE) as the reference electrode, and a glassy carbon electrode (5 mm in diameter) as the working electrode. The scan rate was 2 mV/s.

Data set [9] deals with HeLa cells. The data set is described as follows: Labile iron pool (LIP) determination with calcein-AM in iron-overloaded HeLa cells, flow cytometry. The class given is cell-based, human. The conditions noted are these: 15 min. On the procedure: HeLa cells (10^6/mL) were loaded by incubation with 20 μM Fe(II) for 2 h at 37 °C. Subsequently, cells were collected by centrifugation (1000 rpm for 5 min) and incubated with 0.5 μM calcein-AM for 15 min at 37 °C in a D’hanks buffer of pH 7.4. Cells were then washed twice by D’hanks buffer (pH 7.4) and incubated with or without CAPE and its analogues. The fluorescence was monitored by both flow cytometry (BD FACS Caliber) and a CLSM (Leica TCS SP). The experiment was repeated three times.
Figure 3 Effect of CAPE and its analogues on the LIP level in iron-overloaded cells, as measured by flow cytometry (A–D). HeLa cells were pretreated with 20 μM Fe(II) for 2 h and then incubated with calcein-AM. After 15 min, cells were washed and incubated with or without CAPE and its analogues for 15 min. The fluorescence intensity of cells was measured by flow cytometry. Significant differences from the iron-overloaded group are marked with * p < 0.05, ** p < 0.01, and *** p < 0.001. The experiment was repeated three times.

In data set [1], `O=C(/C=C/c1ccc(O)c(O)c1)OCCc1ccccc1` [CAPE, Caffeic acid phenethyl ester] came in with a LogKow of 2.01 ± 0.02. In addition, in the data set on HeLa cells [2], the “Fluorescence inside the cells after incubation (crossing the cell membrane), in words” value is “significantly increase”. In addition, in the data set with plasmid pBR322 DNA [3], the “Protective effect against Fe(III)–citrate–ascorbate–H2O2-induced DNA damage, in words” value is on record as “significantly inhibited”. In addition, the “Concentration range with the stated inhibition of Fe(III)-citrate-Vc-H2O2 induced DNA damage” value with plasmid pBR322 DNA [3] (CAPE significantly, CA slightly) was in the range of 40 to 200 µM. The “Fluorescence intensity of γ-H2AX” value in the data set on HeLa cells [4] (Fe(II)-H2O2 + 2 μM compound) is reported as 3.07±0.54 Fold of Control; in the data set with HeLa cells [4] (Fe(II)-H2O2 + 10 μM compound), 2.71±0.32 Fold of Control; in the data set with HeLa cells [4] (Fe(II)-H2O2 + 20 μM compound), 1.66±0.46 Fold of Control; in the data set on HeLa cells [4] (Fe(II)-H2O2 + 50 μM compound), 1.26±0.23 Fold of Control. Moreover, the “Inhibition of Fe(II)–H2O2-induced DNA strand breaks, in words” value in the data set with plasmid pBR322 DNA [5] is recorded as “significantly inhibited”. Further, the “Fluorescence intensity of calcein-AM (LIP level)” value in the data set on HeLa cells [6] is given as 0.97±0.03 Fold of Control; with HeLa cells [9] (20 μM Fe(II) + 2 μM compound, Fe(II) alone 0.64±0.04), 0.65±0.00 Fold of Control; with HeLa cells [9] (20 μM Fe(II) + 20 μM compound, Fe(II) alone 0.64±0.04), 0.73±0.02 Fold of Control; with HeLa cells [9] (20 μM Fe(II) + 50 μM compound, Fe(II) alone 0.63-0.64) it was 0.89±0.04 Fold of Control. Moreover, the “Inhibitory effect against Fe(III)-citrate-Vc-H2O2 induced •OH generation, in words” value in [7] is listed as “completely inhibited”. The “Concentration with the stated inhibition of Fe(III)-citrate-Vc-H2O2 induced •OH generation” value in data set [7] (CAPE completely, CA significantly) is 200 µM. Moreover, the “Reduction potential of Fe(III) chelated by compound” value in [8] was −1.00 V.
